Here are results for five molecules from patent US20150273088A1 (Board of Regents, The University of Texas System, priority 2014, published 2015).

The test system of series [1] is HT1080 cells (endogenous IDH1 R132C). The series can be described thus: 2HG fluorimetric assay / high-throughput screen, secreted 2HG in media. The format is cell-based, human. Conditions: for Secreted (extracellular) 2HG: HT1080 cells, 48 hours, fluorescent assay, normalized to viability. The method, then:
2HG fluorimetric assay. N-terminal 6×-His tagged PHGDH was expressed and purified from chemically competent BL-21 E. coli using Ni-NTA agarose (Qiagen) (Grant et al., 1999). Purified protein was then dialyzed in 40 mM KPO4 buffer at 4° C. overnight. Conditioned culture media (DMEM or aMEM) containing 2HG was neutralized with 60 mM HCL for 10 minutes followed by 60 mM Tris base. A 20 μL aliquot of neutralized conditioned media was then mixed with 90 μL of optimized assay reaction mix consisting of 5 μg purified PHGDH enzyme, 12.5 μM resazurin (Sigma-Aldrich), 0.125 U/ml diaphorase (Sigma-Aldrich), 1 mM NAD (Sigma-Aldrich), 40 mM Tris-HCl pH 8.8, and incubated for 90 minutes in a 96-well plate. Resorufin fluorescence was then quantified using a FLUOstar™ OPTIMA fluorescence plate reader (BMG Labtech) with excitation and emission peaks of 544 nm and 590 nm, respectively. Measurements were background subtracted (neutralized fresh media) and normalized either to total protein or viability as measured by Alamar Blue (Naik et al., 2009).
High-throughput screening. Screening was carried out using the Beckman Coulter (Fullerton, Calif.) Core Robotics system, including an FX liquid handler, controlled by the Sagian graphical method development tool (SAMI scheduling software). The Institute of Chemistry and Cell Biology (ICCB) Known Bioactives Library (Enzo Lifescience, BML-2840-0100) was diluted 1:200 in αMEM and 50 μL were added to pre-plated HT1080 cells. After 48 hours of incubation, media was removed and 2HG in the media was measured using the fluorimetric assay. Fresh 2HG fluorimetric assay reaction mix was prepared immediately before assaying each screen plate to limit background modulation. Cell viability was determined using Alamar Blue, as described previously (Naik et al., 2009).
To identify screen hits and account for differences in compound toxicity, 2HG fluorescence was first median-centered around DMSO treatment controls within each screen plate. 2HG fluorescence was then plotted against viability such that a correlation between the two measurements could be visualized. A linear fit and 95% predictive interval (P.I.) were then determined and plotted using GraphPad Prism (GraphPad Software).

The next series relates to HT1080 cells. The series can be described thus: GC-MS quantification of 2HG and upstream metabolites in HT1080 cells. The format is cell-based, human. Conditions: HT1080, 300 μM Zaprinast or 10 μM BPTES. The method, then: GC-MS analysis. Metabolite extraction from cultured cells was performed as described previously by Figueroa et al. (2010). Briefly, cells were rinsed in ice cold PBS and rapidly quenched with 80% methanol spiked with 3-hydroxy-1,5-pentanedioic-2,2,3,4,4-d5 acid (CDN Isotopes, Quebec Canada) as an internal standard. Extracts were then incubated at −80° C. for 20 minutes, sonicated on ice, centrifuged at 14,000×g for 20 minutes at 4° C. to clear precipitate proteins, and supernatants transferred to vials for drying under N2. Derivatizing reagent (MSTFA (N-methyl-N-(trimethylsilyl)trifluoroacetamide):pyridine:acetonitrile 1:1:2) was added to the vials, which were then heated at 70° C. for 15 minutes.
Derivatized samples were analyzed on an Agilent 7890A gas chromatograph interfaced to an Agilent 5975C mass spectrometer. The GC column used for the study was a HP-5MS (30 m, 0.25 mm i.d., 0.25 μm film coating). A linear temperature gradient was used. The initial temperature of 80° C. was held for 2 minute and increased to 300° C. at 10° C./minute. The temperature was held at 300° C. for 2 minutes. The samples were run by electron ionization (EI) and the source temperature, electron energy, and emission current were 200° C., 70 eV, and 300 μA, respectively. The injector and transfer line temperatures were 250° C. 3-Hydroxy-1,5-pentanedioic-2,2,3,4,4-d5 acid was used as the internal standard in SIM mode for quantitation of 2-hydroxyglutaric acid. Quantitation was carried out by monitoring the ions at m/z 347 (glutamine and αKG), 348 (glutamate), 349 (2-hydroxyglutaric acid), and 354 (3-hydroxy-1,5-pentanedioic-2,2,3,4,4-d5).

Series [2] deals with D54 glioblastoma cells expressing IDH1 R132H. To be noted: cited from earlier work.
Series [3] concerns the target T1, purified, full length, human GLS1 (Homo sapiens, UniProt O94925).
T1 construct: 6xHis (N); made in house; host or cells: E. coli BL-21
T1 sequence (O94925 55-669): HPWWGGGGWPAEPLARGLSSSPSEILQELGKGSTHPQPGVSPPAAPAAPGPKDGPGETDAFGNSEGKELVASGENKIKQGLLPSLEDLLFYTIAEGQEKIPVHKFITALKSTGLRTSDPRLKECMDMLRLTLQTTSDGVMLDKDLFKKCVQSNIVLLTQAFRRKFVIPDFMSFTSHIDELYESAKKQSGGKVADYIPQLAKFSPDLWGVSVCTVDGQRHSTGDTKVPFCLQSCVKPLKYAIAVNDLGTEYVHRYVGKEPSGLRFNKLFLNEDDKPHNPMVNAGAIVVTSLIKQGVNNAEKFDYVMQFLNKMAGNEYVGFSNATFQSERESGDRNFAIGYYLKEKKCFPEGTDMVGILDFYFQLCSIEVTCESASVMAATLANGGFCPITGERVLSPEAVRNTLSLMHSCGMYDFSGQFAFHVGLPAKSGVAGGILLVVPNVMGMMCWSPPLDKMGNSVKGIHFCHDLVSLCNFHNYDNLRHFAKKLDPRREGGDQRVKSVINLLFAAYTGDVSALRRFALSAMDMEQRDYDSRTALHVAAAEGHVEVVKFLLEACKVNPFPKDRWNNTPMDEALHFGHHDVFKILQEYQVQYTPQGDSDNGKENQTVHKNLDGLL
Briefly: Glutaminase assay (two-step, purified enzyme). The format is biochemical. Conditions: control experiment, 10 mM glutamine. As to the method: Glutaminase assay. N-terminal 6×-His tagged GLS1 was expressed and purified from chemically competent BL-21 E. coli using Ni-NTA agarose beads (Qiagen). Purified protein was then dialyzed in a 50 mM Tris-phosphate buffer containing 1 mM dithiothreitol at 4° C. overnight. A previously described two-step assay was used to measure glutaminase activity (Kenny et al., 2003). […] […] […] For the second step of the assay, 20 μL of completed and quenched initial reaction were transferred to a new plate and 200 μL of secondary reaction mix containing 0.4 mg bovine liver glutamate dehydrogenase (Sigma-Aldrich), 0.09 M Tris-acetate (pH 9.4), 0.2 M hydrazine, 0.25 mM ADP, and 2 mM NAD was added. Samples were incubated for 40 minutes at room temperature and absorbance of NADH (340 nm) was measured using a microplate spectrophotometer.

Turning to `Nc1nc2c(nc(Br)n2[C@@H]2O[C@@H]3COP(=O)(O)O[C@H]3[C@H]2O)c(=O)[nH]1` [8-bromo-cGMP], the “Secreted (extracellular) 2HG” value in series [1] is “did not cause a reduction”. As for `O=C(Cc1ccccc1)Nc1nnc(CCSCCc2nnc(NC(=O)Cc3ccccc3)s2)s1` [BPTES], the “Cellular 3-phosphoglycerate (3PG) level” value with HT1080 cells is recorded as “did not cause an elevation”. Besides, in series [2], the “2HG levels in D54 cells” value is recorded as “unaffected” and the “Growth of D54 cells expressing IDH1 R132H compared to wild type IDH1” value is recorded as “preferentially limits growth”.

With `COCc1cc(O)c(O)c(O)c1-c1c(COC)cc(O)c(O)c1O` [HBDDE], the “Viability in high-throughput screen (Alamar Blue)” value in series [1] (HT1080, 48 hours) is “little effect on viability”. In addition, the “2HG in high-throughput screen” value in series [1] (HT1080, 48 hours, screen hits top left quadrant) was “reduced 2HG”. Take `CCCc1nn(C)c2c(=O)[nH]c(-c3cc(S(=O)(=O)N4CCN(C)CC4)ccc3OCC)nc12` [Sildenafil]: in series [1], the “Secreted (extracellular) 2HG” value is “no change”. Take `Nc1nc2c(ncn2[C@@H]2O[C@@H]3COP(=O)(O)O[C@H]3[C@H]2O)c(=O)[nH]1` [cGMP]: the “Effect on GLS1 enzymatic activity” value in series [3] is reported as “no direct effect”.
